Experimental data taken from the METLIN SMRT retention time set (Domingo-Almenara et al. 2019).

Assay: gradient 5% acetonitrile 3 min, to 50% in 2 min, to 85% in 15 min, held 3 min, 100 µL/min
Settings: column: Zorbax Extend-C18 2.1 x 50 mm; eluents: water / acetonitrile, 0.1% formic acid
Summary of the method: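 Mixtures of ~100 pure standards were chromatographed on a Zorbax Extend-C18 column (2.1 × 50 mm, 1.8 μm) at 100 μL/min using water and acetonitrile, each with 0.1% formic acid. Detection used a quadrupole time-of-flight mass spectrometer in positive and negative ionization mode, and data collection spanned 3 months. Retention time was obtained from adduct peaks picked computationally and each checked manually.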

RP-LC retention time	SMILES
556 s	CCc1nc2c(NC(=O)Cc3cccnc3)cccn2n1
699 s	CS(=O)(=O)Nc1cccc(NC(=O)c2cc(-c3cccs3)[nH]n2)c1
908 s	COc1ccc(Nc2c(-c3ccc(SC)cc3)nc3cnccn23)cc1
640 s	CN(C)c1ccc(CNC(=O)Cc2c[nH]c3ncccc23)cc1
702 s	O=C(Cn1nc2n(c1=O)CCCCC2)NCc1ccc(Cl)cc1
1150 s	COc1ccccc1-c1nnc(-c2ccc(C)c(S(=O)(=O)N3CCC(C)CC3)c2)o1
687 s	Cc1ccc2c(c1)N(C(=O)CSc1ccc(N3CCCC(C(=O)NC4CC4)C3)nn1)CCO2 (centres undefined)
847 s	Cc1ccc(CNC(=O)CNS(=O)(=O)c2cc(-c3noc(C)n3)sc2C)cc1
886 s	CCc1ccc(NS(=O)(=O)c2cc(-c3c(CC)noc3NC(C)=O)ccc2C)cc1
781 s	CCc1nnc(-c2ccc3ccn(CC(=O)NCCc4cccs4)c3c2)o1
646 s	CC(NC(=O)c1ccco1)C(=O)NCc1nn(C)c2ccccc12 (centres undefined)
697 s	Cc1cc(C)cc(NC(=O)NC2CCN(c3ccccc3)C2=O)c1 (centres undefined)
1010 s	CC(C)Oc1ccccc1Cn1c(=O)oc2ccccc21
659 s	O=C(Nc1ccc(-n2cnnn2)cc1)C1CN(c2nc3ccccc3s2)C1
625 s	CC(C)(C)C(=O)N1CCCC(C(=O)N2CCOCC2)C1 (centres undefined)
802 s	CNC(=O)C1Cc2ccccc2N1S(=O)(=O)c1cccc(C(F)(F)F)c1 (centres undefined)
952 s	O=C(Nc1cnc(N2CCCCCC2)nc1)c1ccc(Br)o1
1180 s	Cc1cccc(S(=O)(=O)N2CCC(c3noc(-c4ccc(F)cc4)n3)CC2)c1
778 s	CCOC(=O)c1c(C)oc2nc(C)nc(NCCCN3CCN(c4cccc(C)c4)C(C)C3)c12 (centres undefined)
798 s	COc1ccc(NC(=O)Nc2nccn(-c3cccc(F)c3)c2=O)cc1OC
832 s	COc1cccc(C2OC(c3cccc(Cn4cccn4)c3)=NN2C(C)=O)c1OC(C)=O (centres undefined)
830 s	COCCOCc1nc(C2CCCN2S(=O)(=O)c2cc(F)ccc2F)no1 (centres undefined)

RP-LC retention time	SMILES
578 s	CCOC(=O)c1c(C)[nH]c(C(=O)N2CCCC(C(=O)NCCN3CCCCCC3)C2)c1C (centres undefined)
739 s	O=C(Nc1c(-c2ccc(F)cc2)nc2ccccn12)c1ccc(Cl)cc1Cl
606 s	O=C(NCCCN1CCCCC1)C1CCN(c2cnn(Cc3ccccc3)c(=O)c2)CC1
677 s	CCN1C(=O)CCc2cc(NC(=O)c3ccnn3C)ccc21
566 s	O=C(CSc1ccc(F)cc1)NCC1CCN(Cc2cccs2)CC1
976 s	Cc1ccc(C2C(S(=O)(=O)c3ccc(C)cc3)=C(O)C(=O)N2Cc2ccco2)cc1 (centres undefined)
879 s	CCN(CC)S(=O)(=O)c1ccc2c(c1)CC(C(=O)N1CCN(c3ccccc3)CC1)N2C(C)=O (centres undefined)
560 s	CN(C)c1ccc(C(CNC(=O)c2ccccc2[N+](=O)[O-])N2CCOCC2)cc1 (centres undefined)
825 s	COCCn1cc2c3c(cccc31)CN(C(=O)Nc1cc(OC)c(OC)c(OC)c1)CC2
780 s	CC1CS(=O)(=O)N(c2ccc(C(=O)NCCc3c[nH]c4ccccc34)cc2)C1=O (centres undefined)
765 s	CCCN(C)c1nccnc1OC1CCN(C(=O)C2CCC2)C1 (centres undefined)
733 s	O=C(Nc1ccc(Br)cc1F)c1cc(-c2cccnc2)n[nH]1
945 s	Cc1ccc(NC(=O)N2CCCC(C)(C(=O)NCc3ccccc3)C2)cc1F (centres undefined)
919 s	Cc1ccc(C(C)NC(=O)c2ccc3[nH]cc(C(=O)C(=O)N4CCCCCC4)c3c2)c(C)c1 (centres undefined)
707 s	COc1cc(NS(=O)(=O)c2c[nH]c3ncccc23)cc(OC)c1
1000 s	CCN1C(=O)c2cc(S(=O)(=O)Nc3ccccc3C)ccc2Oc2cccnc21
1250 s	CC1CCN(S(=O)(=O)c2ccc(Cl)c(-c3nnc(-c4ccccc4)o3)c2)CC1
1250 s	CCOc1ccc(Cc2nc(-c3ccc4oc(C)nc4c3)no2)cc1
765 s	O=C1CC(c2ccccc2Cl)Cc2nc(N3CCN(Cc4ccc5c(c4)OCO5)CC3)ncc21 (centres undefined)
856 s	O=C(CCc1ccc2[nH]ccc2c1)N1CCN(c2ccccc2)CC1
646 s	O=C(O)/C=C\C(=O)Nc1nccs1
571 s	CS(=O)(=O)N(Cc1cccnc1)C1CN(Cc2ccc(F)c(F)c2)C1

RP-LC retention time	SMILES
663 s	CC(C)CNC(=O)C1CCN(c2nc3ccc(-c4cncnc4)nc3s2)CC1
601 s	O=C(NCCC1=CCCCC1)C1CCc2ncc(-c3ccsc3)n2C1 (centres undefined)
779 s	O=C(NCc1[nH]nc2ccccc12)c1ccc(Cl)cc1
611 s	CC(=O)N1CCc2cc(-c3ccc(C(=O)N4CCN(c5ccccn5)CC4)cc3)ccc21
579 s	CCC(C)(C)OCC(O)CNCC(C)C (centres undefined)
663 s	Cc1ccc(-n2c(CN3CCN(C(=O)NC4CCCC4)CC3)nc3cccnc32)cc1
824 s	CCNC(=O)c1ccc(N2CCc3ccccc32)s1
1260 s	Cc1cccc(-c2noc(C3CCCN3S(=O)(=O)c3cc(C)ccc3C)n2)c1 (centres undefined)
909 s	CC(C)N1CCCn2cc(S(=O)(=O)Nc3ccc(Oc4ccccc4)cc3)cc2C1=O
1000 s	CCCCOc1ccc(C(=O)N2CCNC(=O)C2CC(=O)OC2CCCCC2)cc1 (centres undefined)
778 s	O=C(c1ccc(-c2ccc([N+](=O)[O-])cc2Cl)o1)N1CCOCC1
903 s	COCCCNC(=O)C1(C)Cn2nc(-c3ccccc3)cc2C(=O)N1Cc1cc(OC)ccc1OC (centres undefined)
593 s	CCc1ccc(N2C(=O)CC(N3CCC(C(N)=O)CC3)C2=O)cc1 (centres undefined)
706 s	Cc1cccc(CN2CC=C(C(=O)N3CCN(c4cccc(C)c4)CC3)CC2)c1
927 s	Cc1ccc(-c2cn3ccn(-c4ccc(F)c(Cl)c4)c(=O)c3n2)cc1
878 s	CCSc1ccccc1C(=O)Nc1ccc(-c2nc(C)no2)cc1
593 s	O=C(NCCCN1CCc2ccccc2C1)C1CCCN(c2nnc(-n3cccc3)s2)C1 (centres undefined)
1020 s	CC(C)OC(=O)CCC/C=C\C[C@@H]1[C@@H](CC[C@@H](O)CCc2ccccc2)[C@H](O)C[C@@H]1O
1030 s	O=C(CSc1nc2ccc([N+](=O)[O-])cc2s1)c1ccc(F)cc1
615 s	Cc1noc(CNC(=O)C2CCN(C(=O)NCc3ccc(F)cc3)CC2)n1
704 s	Cc1cccn2cc(C(=O)NCc3ccccc3Cl)nc12
916 s	COC(=O)c1ccc2c(c1)nnn2Cc1ccc(F)cc1

RP-LC retention time	SMILES
789 s	COc1ccc(N2C=C(C(=O)N3CCOCC3)S(=O)(=O)c3ccccc32)cc1Cl
699 s	Cc1ccc2oc(CN3CCN(C(=O)Nc4ccccc4F)CC3)nc2c1
809 s	Cc1ccc(Cl)cc1NC(=O)C(C)n1cnc2nc3c(cc2c1=O)CCCC3 (centres undefined)
722 s	O=C(Cc1ccccc1Cl)NCC1CCN(C(=O)c2ccccc2F)CC1
698 s	Cc1cc(C(=O)NCCOc2ccc3nnc(-c4ccccc4)n3n2)c(C)o1
617 s	CCCNC(=O)c1ccc2nc(CCc3ccc(NC(=O)C(C)C)cc3)[nH]c2c1
818 s	CCS(=O)(=O)N1CC(=O)N(c2ccc(F)cc2C)C(C)(C(=O)NCc2ccccc2)C1 (centres undefined)
799 s	CCOC(=O)c1[nH]c(C)c(CCC(=O)N2CCC(C(=O)NCc3ccc(OC)cc3OC)CC2)c1C
1130 s	CC(C)CN(CC(C)C)c1nc(-c2ccc(Cl)cc2)nc2ccccc12
766 s	Cc1nnc(-c2nnc(NC3CCCCCC3)c3ccccc23)o1
1220 s	COc1ccc(-c2csc(NC(=O)COc3ccccc3Cl)n2)cc1Br
838 s	COc1ccc(-c2c(C)noc2NC(C)=O)cc1S(=O)(=O)NCC(C)c1ccccc1 (centres undefined)
988 s	COc1ccc(Cl)cc1C(=O)N1CCN(c2cc(-n3nc(C)cc3C)nc(C)n2)CC1
545 s	Cc1cc(N(C)C)nc(NCCNC(=O)C2CCCC2)n1
661 s	O=C(C1CCCN(c2nnc(-n3cccc3)s2)C1)N1CCN(Cc2ccccc2)CC1 (centres undefined)
623 s	Cc1ccc2c(Nc3ccc4c(c3)OCCO4)c(C(=O)N3CCCCC3C)cnc2n1 (centres undefined)
1070 s	COc1cccc(N2CCN(S(=O)(=O)c3cc(-c4nc(C)cs4)cs3)CC2)c1
809 s	CCOc1ccc(NC(=O)Cn2nc(N3CCCC3)c3ccccc3c2=O)cc1
1200 s	Cc1ccc(C2c3[nH]c4ccccc4c3CCN2C(=O)C2CCC2)cc1 (centres undefined)
624 s	CCNC(=O)C1CCN(S(=O)(=O)c2c(C)[nH]c(C)c2C(=O)N2CCCCC2)CC1
706 s	O=c1n(CC2CC2)nc2n1CCC(NS(=O)(=O)c1ccccc1)CC2 (centres undefined)

SMILES	RP-LC retention time
COc1ccc(OC)c(S(=O)(=O)N2[C@H]3CC[C@@H]2c2cnc(C)nc2C3)c1	703 s
C=C1[C@@H](C)[C@H]2[C@H](Cc3ccccc3)NC(=O)C23[C@H](OC(C)=O)/C=C/[C@](C)(O)C(=O)[C@@H](C)C/C=C/[C@H]3[C@@H]1O (some centres undefined)	801 s
